Data reported in patent US8778966B2, “Quinolinone derivatives as PARP and tank inhibitors” (Janssen Pharmaceutica, NV, priority 2007, dated 2014).

biological target: T1, TANK-2 enzyme (Homo sapiens, UniProt Q9H2K2); test: In vitro Scintillation Proximity Assay (SPA) for TANK-2 inhibitory activity; format: biochemical; details: read-out: in vitro SPA assay TANK-2 pIC50 (converted)
T1 construct: made in house
T1 sequence (Q9H2K2 1-1166): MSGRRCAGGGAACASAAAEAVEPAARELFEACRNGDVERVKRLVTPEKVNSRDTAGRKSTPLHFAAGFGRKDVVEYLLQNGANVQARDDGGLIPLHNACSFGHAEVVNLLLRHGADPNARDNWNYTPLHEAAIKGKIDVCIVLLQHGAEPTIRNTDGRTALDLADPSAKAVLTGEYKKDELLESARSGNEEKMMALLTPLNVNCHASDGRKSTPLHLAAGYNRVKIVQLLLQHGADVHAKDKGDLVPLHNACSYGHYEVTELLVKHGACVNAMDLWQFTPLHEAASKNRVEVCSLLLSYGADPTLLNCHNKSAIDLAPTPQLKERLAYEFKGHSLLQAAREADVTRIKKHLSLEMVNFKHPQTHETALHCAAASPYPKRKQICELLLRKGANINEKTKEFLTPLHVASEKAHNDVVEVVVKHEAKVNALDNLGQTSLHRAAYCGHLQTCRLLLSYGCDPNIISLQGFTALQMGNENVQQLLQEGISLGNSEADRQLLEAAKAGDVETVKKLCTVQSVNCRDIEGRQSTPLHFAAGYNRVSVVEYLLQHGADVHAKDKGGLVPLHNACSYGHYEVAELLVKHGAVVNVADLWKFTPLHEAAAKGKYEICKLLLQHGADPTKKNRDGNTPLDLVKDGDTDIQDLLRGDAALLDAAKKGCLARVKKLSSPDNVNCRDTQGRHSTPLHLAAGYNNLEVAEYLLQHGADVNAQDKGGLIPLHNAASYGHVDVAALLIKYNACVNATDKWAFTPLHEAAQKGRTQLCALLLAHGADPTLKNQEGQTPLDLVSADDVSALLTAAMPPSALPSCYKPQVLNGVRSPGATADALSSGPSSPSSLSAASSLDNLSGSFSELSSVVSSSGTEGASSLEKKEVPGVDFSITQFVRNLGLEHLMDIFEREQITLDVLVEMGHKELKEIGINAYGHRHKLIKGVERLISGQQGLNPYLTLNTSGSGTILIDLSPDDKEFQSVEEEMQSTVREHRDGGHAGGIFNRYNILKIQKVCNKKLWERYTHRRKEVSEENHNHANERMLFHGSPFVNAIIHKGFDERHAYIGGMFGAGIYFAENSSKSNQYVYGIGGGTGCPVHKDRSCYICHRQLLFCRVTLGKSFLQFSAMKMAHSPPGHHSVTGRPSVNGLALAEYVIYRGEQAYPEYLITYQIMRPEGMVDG
Procedure, shortened: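 Results are pIC50 values, with IC50 interpolated linearly around 50% of blank-subtracted control cpm. They come from a scintillation proximity read of TANK-2 (8 μg/ml) self-modification with [3H]-NAD+/NAD, incubated 120 min at room temperature in pH 7.4 Tris buffer containing MgCl2 and DTT. Compounds were first screened at 10^−5 M.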

SMILES	IC50 [nM]
CCc1cc2ccc(C(C#N)(CC)Cc3cccc(C#N)n3)cc2[nH]c1=O (stereo not drawn) [Compound 342]	39.8
CCc1cc2ccc(C(C)(C#N)CCOc3ncc(Br)cn3)cc2[nH]c1=O (stereo not drawn) [Compound 349]	200
CCc1cc2ccc(C(C)(C#N)CN3CCN(c4ncc(Br)cn4)CC3)cc2[nH]c1=O (stereo not drawn) [Compound 374]	501
CCc1cc2ccc(C(C)(C#N)CN3CCc4ccccc4C3)cc2[nH]c1=O (stereo not drawn) [Compound 376]	200
Cc1cc2ccc([C@@](C)(C#N)[C@@H]3CCCc4ccccc43)cc2[nH]c1=O [Compound 382]	2000
CCc1cc2ccc([C@](C)(C#N)C[C@H]3Cc4ccccc4O3)cc2[nH]c1=O [Compound 397]	100
CCc1cc2ccc(C(C#N)(CC)C3CCc4ccc(OC)cc43)cc2[nH]c1=O (stereo not drawn) [Compound 403]	2510
Cc1cc2ccc([C@@](C)(C#N)[C@H]3CCc4ccc(Br)cc43)cc2[nH]c1=O [Compound 405]	5010
Cc1cc2ccc([C@](C)(C#N)[C@@H]3CCc4ccc(Br)cc43)cc2[nH]c1=O [Compound 406]	5010
Cc1cc2ccc([C@](C)(C#N)[C@H]3CCc4ccc(Br)cc43)cc2[nH]c1=O [Compound 407]	6310

The remaining lines, values ahead:

IC50 [nM]	SMILES
200	CCc1cc2ccc(C(C)(C#N)CCOc3ccnc(SC)n3)cc2[nH]c1=O (stereo not drawn) [Compound 348]
126	CCc1cc2ccc(C(C)(C#N)Cc3nc(C)cc(OC)n3)cc2[nH]c1=O (stereo not drawn) [Compound 371]
316	CCc1cc2ccc(C(C#N)(CC)Cc3cccc(CN)c3)cc2[nH]c1=O (stereo not drawn) [Compound 390]
501	CCc1cc2ccc(C(C)(C#N)CC3Oc4ccccc4O3)cc2[nH]c1=O (stereo not drawn) [Compound 398]
126	CCc1cc2ccc(C(C)(C#N)Cc3cc(F)cc(F)c3)cc2[nH]c1=O (stereo not drawn) [Compound 402]
